Data as given in patent US10913781B2, “Pepducin design and use” (Tufts Medical Center, Inc., priority 2011, dated 2021).
Peptide text beside a SMILES is read from it. * marks the point of attachment. Palmitoyl = CCCCCCCCCCCCCCCC(=O)*

Test system: VEGF-A production
Assay: Thrombin-dependent VEGF-A production in A549 cells (ELISA)
Type: cell-based, human
Conditions: A549, 18 hours thrombin treatment
Method: FIG. 13 illustrates that monotherapy with PAR1-i3 pepducins inhibits tumor progression of A549 xenografts. (A) and (B): A549 mice treated with vehicle, P1pal-7, P1pal-i1-11, P1pal-10S, X1/2-i1, X1/2-i3, or Avastin. Each time point represents the mean±SE. (C): Final tumor volume at the completion of the experiment was calculated as a percentage of untreated vehicle control. (D): Serum-starved A549 adenocarcinoma cells were pretreated with P1pal-7, P1pal-10S, P1pal-i1-11, vehicle, or PD98059 and stimulated with thrombin. VEGF production was assessed by enzyme-linked immunosorbent assay. Data are expressed as mean±SD (*P<0.05, **P<0.01).
Because the i3-based P1pal-7 pepducin had similar efficacy as Avastin in suppressing lung tumor growth of A549 xenografts, VEGF-A production was measured in the A549 tumor cells after 18 hours thrombin treatment. […] Unlike in ovarian cancer, no increase was found in PAR1-mediated IL-8 production in A549 cells, consistent with the observed lack of efficacy of CXCR1/2 pepducins in the A549 xenograft models. These xenograft data provide support for the role of a novel PAR1-ERK1/2-VEGF paracrine pathway that is an effective therapeutic target in the A549 adenocarcinoma lung cancer model.

## CCCCCCCCCCCCCCCC(=O)N[C@H](C(=O)N[C@@H](CC(C)C)C(=O)N[C@@H](CCCCN)C(=O)N[C@@H](CCSC)C(=O)N[C@@H](CCCCN)C(=O)N[C@H](C(=O)N[C@@H](CCCCN)C(=O)N[C@@H](CCCCN)C(=O)N1CCC[C@H]1C(=O)N[C@@H](C)C(=O)N[C@H](C(N)=O)C(C)C)C(C)C)[C@@H](C)CC [P1pal-i1-11] (Palmitoyl-ILKMKVKKPAV-NH2)
  Effect on thrombin-dependent VEGF-A production: did not inhibit
